Results reported in patent publication US20150320756A1, “TREATMENTS OF COCCIDIOSIS WITH INTRAMUSCULAR TRIAZINE COMPOSITIONS” (CEVA SANTE ANIMALE, priority 2012, published 2015).

Tests used:
Assay type in all cases: in vivo
[1] = Pharmacokinetics: serum concentrations of toltrazuril and toltrazuril sulfone in 2 day-old piglets (Example B)
Description: (§1) Protocol • Group 1: 10 piglets 2 days old were injected with once intramuscularly dose of toltrazuril C629 (Dose=20 mg toltrazuril per kg bodyweight—equivalent to 0.4 mL/Kg bodyweight) on SD0 • Group 2: 11 piglets 2 days old were injected with once intramuscularly dose of toltrazuril C629 (Dose=40 mg toltrazuril per kg bodyweight a—equivalent to 0.8 mL/kg bodyweight) on SD0 • Group 3: 9 piglets 2 days old were dosed orally with the standard commercial formulation of toltrazuril Cevazuril® (Dose=20 mg toltrazuril per kg bodyweight—equivalent to 0.4 mL/Kg bodyweight) on SD0. • Group 4: 8 piglets, left untreated.
(§2) All four (4) groups of piglets were injected on SD0 with iron injection (Gleptosil®) at the dose rate of 1 ml per piglet. 3 days after treatment (on SD3), the piglets were orally challenged with a characterised strain of Isospora suis.
(§3) The following study parameters were used to assess the efficacy of the test products: • Local and general tolerance (for Groups 1 and 2) • Occurrence of diarrhoea and faecal consistency • Oocyst excretion • Bodyweight development • Serum concentrations of toltrazuril and its metabolite toltrazuril sulfone (e.g ponazuril) in Group 1, 2 and 3.

Isospora suis = assay: Anti-coccidial efficacy in piglets orally challenged with Isospora suis (Example B)
Description: as §1, §2, §3

[2] = Local and general tolerance of a single intramuscular injection of toltrazuril in 3-day old piglets (Example A)
Description: (§4) This target animal safety and efficacy study was conducted in a farm with known history of cocciodiosis. The main objective was to study the safety and efficacy of intramuscular injection of toltrazuril in comparison to the standard oral application. • Group 1: 8 piglets 3 days old were injected by a single intramuscular dose of toltrazuril (Dose=20 mg toltrazuril per kg bodyweight equivalent to 0.4 mL/kg bodyweight) on SD0. • Group 2: 8 piglets 3 days old were injected by one intramuscular dose of toltrazuril (60 mg toltrazuril per kg bodyweight equivalent to 1.2 mL/Kg bodyweight) on SD0 • Group 3: 8 piglets 3 days old were dosed orally with the standard commercial formulation of toltrazuril Cevazuril® (Dose=20 mg toltrazuril per kg bodyweight equivalent to 0.4 mL/Kg bodyweight) on SD0 • Group 4: 12 piglets 3 days old, left untreated.
(§5) All four (4) groups of piglets were injected on SD0 with iron (Gleptosil®) at the dose rate of 1 ml per piglet.

[3] = Bodyweight development of piglets on a farm with known history of coccidiosis (Example A)
Description: as §4, §5

[4] = Local and general tolerance of intramuscular toltrazuril in 2 day-old piglets (Example B); conditions: all tested doses (i.m. 20 and 40 mg/kg)
Description: as §1, §2, §3

[5] = G1, G2: single i.m. 20 or 40 mg/kg on SD0, Isospora suis challenge on SD3

In the case of `Cc1cc(-n2c(=O)[nH]c(=O)n(C)c2=O)ccc1Oc1ccc(SC(F)(F)F)cc1` [toltrazuril], the Absorption ([1]; after intramuscular application, piglets) is reported as “well absorbed”, the “Toltrazuril sulfone (ponazuril) kinetics, oral (G3) versus intramuscular (G1 and G2)” value ([1]; metabolite after toltrazuril 20 mg/kg oral vs 20 or 40 mg/kg i.m.) is reported as “not statistically different” and the “Serum level of toltrazuril sulfone” value ([1]; upon intramuscular injection of toltrazuril (FIGS. 4 and 5)) is reported as “rapid and sustained”. For the same molecule, the Fecal consistency (Isospora suis; [5]) was “unchanged”, the Oocyst excretion (Isospora suis; [5]) was “No oocyst excretion was observed” and the “Weight gain versus control animals (G4)” value (Isospora suis; G1, G2: single i.m. 20 or 40 mg/kg, infected piglets) was “gained more weight than the control animals”. The “Time to disappearance of local reaction post injection” value ([2]; piglets injected i.m. with 1.2 mL/kg bodyweight) was “less than 1 week”, the “Local reaction (oedema)” value ([2]; piglets injected i.m. with 1.2 mL/kg bodyweight (60 mg/kg)) was “limited local reaction (Oedema) in some piglets” and the General tolerance ([2]; single intramuscular doses up to 60 mg/kg, 3-day old piglets) was “well tolerated”. The Pain after injection ([2]; single intramuscular injection, 3-day old piglets) was “No pain”, the “Bodyweight gain versus control non treated piglets” value ([3]; intramuscularly treated piglets, at SD0+29 days) was “+2 kg” and the Bodyweight development ([3]; single i.m. 20 or 60 mg/kg, 3-day old piglets) was “normal”. The Tolerance [4] was “well tolerated”.
